Like-named read-outs stand apart in the source and are kept apart here. Where no end group is shown, it is not given here.
Experiments:
healthy donors [1] = conditions: in vivo
healthy donors [2] = assay: Allergic skin reaction (type I allergy) skin test in healthy donors
[3] = test system: HLA-A24 restricted antigen peptide-specific T cells (CTL precursors) in PBMCs; assay type: cell-based, human; conditions: for CTL precursor induction assay, response level per well: quadricate assay; for IFN-γ production: background deducted
cancer patients = assay: Skin test for immediate and delayed type hypersensitivity in cancer patients
Protocol: For the skin test, 10 μg of 5 kinds of peptides was subcutaneously administered to each patient. Saline was used as the negative control. 20 minutes and 24 hours after injection, immediate and delayed type hypersensitivity (DHT) reactions were looked for. The skin test reaction was determined as positive if erythema and sclerosis were more than 10 mm in diameter. If the immediate hypersensitivity reaction was negative, a peptide was administered. Each peptide solution (3 mg/ml) was mixed with the same amount of IFA (Montanide ISA-51) and emulsified in a 5-mI plastic syringe, and 3 ml of the emulsion was subcutaneously administered to the lateral femoral region every two weeks. Serum PSA level was measured 4 weeks after vaccination. The time passed was defined as the time from the registration day to the date when the progress of the target disease was recorded. For patients who chose to discontinue the study without any progress of the target disease (e.g., increase in PSA) it was determined that the disease had progressed at the time the study was stopped.
When an immediate hypersensitivity reaction positive in the skin test of one of these peptides, that peptide was vaccinated if the fifth peptide of criteria A, B, or Z was negative in the skin test. […] In Table 14, o signifies vaccine peptides given to each patient.
Vaccine was administered to HLA-A24 positive patients with progressive cancer as following. CypB91 was given to lung cancer patients, ART475 to ovarian cancer patients, and SART3109 to colorectal cancer patients. None of the patients received any steroids or other immunosuppressants from 4 weeks before the beginning of this study to the end of the study. When the skin test was negative, 1 ml of peptide solution (1 mg/ml) was emulsified with the same amount of Freund's incomplete adjuvant (Montanide ISA-51) and injected subcutaneously. In this embodiment, all patients were vaccinated at least three times every two weeks, and up to seventeen times, depending on the patient's wishes.

[4] = HLA-A24 positive cervical cancer patient, after more than 5 doses of cancer vaccine
[5] = HLA-A24 positive cervical cancer patient, before vaccination, response to HIV-C1R-A24 cells subtracted
[6] = colorectal cancer patient 4, after the 3rd vaccination
[7] = HRPC Pt. 3, pre-vaccinated PBMCs

KGHRVIKDF [CypB 84-2G]
suppressed cases FR ≦ 0.25 (healthy donors [1]): 1/7

HFHRVIPDF
Allergic skin reaction, area of flare (healthy donors [2]; healthy donor HD1): 375 mm × mm
Allergic skin reaction, area of flare (healthy donors [2]; healthy donor HD2): 1225 mm × mm
Allergic skin reaction, area of flare (healthy donors [2]; healthy donor HD3): 750 mm × mm
Allergic skin reaction, area of flare (healthy donors [2]; healthy donor HD6): 900 mm × mm
Allergic skin reaction, area of flare (healthy donors [2]; healthy donor HD10): 156 mm × mm

AFLGHAAL [ART4 13-4G]
skin test, area of flare (healthy donors [1]): 0 mm × mm
suppressed cases FR ≦ 0.25 (healthy donors [1]): 4/4

DYLRSVLEDF [lck488]
IFN-γ production 1st well [3, 4]: 25 pg/well
IFN-γ production 2nd well [3, 4]: 99 pg/well
IFN-γ production 1st well [3, 5]: <0 pg/well
IFN-γ production 2nd well [3, 5]: <0 pg/well
IFN-γ production 3rd well [3, 5]: 25 pg/well
peptide-specific DTH reaction (cancer patients; colorectal cancer patient 1): observed after the 6th vaccination
peptide-specific DTH reaction (cancer patients; [6]): exhibited DTH reaction

KFHRVIGDF [CypB 84-7G]
suppressed cases FR ≦ 0.25 (healthy donors [1]): 1/7

AGLRHAAL [ART4 13-2G]
skin test, area of flare (healthy donors [1]): 0 mm × mm
suppressed cases FR ≦ 0.25 (healthy donors [1]): 4/4

KFHRGIKDF [CypB 84-5G]
suppressed cases FR ≦ 0.25 (healthy donors [1]): 0/7

KFHRVGKDF [CypB 84-6G]
suppressed cases FR ≦ 0.25 (healthy donors [1]): 3/7

AFGRHAAL [ART4 13-3G]
suppressed cases FR ≦ 0.25 (healthy donors [1]): 1/4

AFLRHGAL
number of donors with a significant decrease in skin reaction (healthy donors [1]): one

KFHRVIKDG [CypB 84-9G]
suppressed cases FR ≦ 0.25 (healthy donors [1]): 2/7

KFHRVIPKF
Allergic skin reaction, area of flare (healthy donors [2]; healthy donor HD1): 600 mm × mm
Allergic skin reaction, area of flare (healthy donors [2]; healthy donor HD2): 750 mm × mm
Allergic skin reaction, area of flare (healthy donors [2]; healthy donor HD3): 1225 mm × mm
Allergic skin reaction, area of flare (healthy donors [2]; healthy donor HD6): 500 mm × mm
Allergic skin reaction, area of flare (healthy donors [2]; healthy donor HD10): 625 mm × mm

DYPSLSATDI [ART475]
IFN-γ production 1st well [3, 4]: 9 pg/well
IFN-γ production 2nd well [3, 4]: 2 pg/well
IFN-γ production 3rd well [3, 4]: 60 pg/well
change in reactivity of PBMCs to the vaccinated peptide after vaccination ([3]; HLA-A24 positive cervical cancer patient, before vs after 3rd and 6th dose): increase in reactivity
CTL precursor induction assay, response level per well [3, 7]: ⊚AE
CTL precursor induction assay, response level per well ([3]; HRPC Pt. 4, pre-vaccinated PBMCs): ⊚B
rate of skin reaction occurrence (donors) (healthy donors [1]): no such response

AFLRHGAL [ART4 13-6G]
suppressed cases FR ≦ 0.25 (healthy donors [1]): 1/4

TFDYLRSVL [lck486]
IFN-γ production 1st well [3, 4]: 2 pg/well
IFN-γ production 2nd well [3, 4]: 24 pg/well
IFN-γ production 3rd well [3, 4]: <0 pg/well
IFN-γ production 1st well [3, 5]: <0 pg/well
IFN-γ production 2nd well [3, 5]: <0 pg/well
IFN-γ production 3rd well [3, 5]: 31 pg/well
CTL precursor induction assay, response level per well ([3]; HRPC Pt. 1, pre-vaccinated PBMCs): E (E: 0.1<p≦0.2 and 100≦net)
CTL precursor induction assay, response level per well ([3]; HRPC Pt. 2, pre-vaccinated PBMCs): ^b(⊚B)
CTL precursor induction assay, response level per well [3, 7]: (D)
CTL precursor induction assay, response level per well ([3]; HRPC Pt. 8, pre-vaccinated PBMCs): ⊚A
peptide-specific DTH reaction (cancer patients; [6]): exhibited DTH reaction

AGLRHAAL
skin reaction (healthy donors [1]): did not induce skin reaction in any of 4 donors

KFHGVIKDF [CypB 84-4G]
suppressed cases FR ≦ 0.25 (healthy donors [1]): 1/7

EYCLKFTKL [ART1170]
immediate hypersensitivity reaction in skin test (cancer patients; 10 colorectal cancer patients, before vaccination): positive in all patients

RFYIQMCYEL [Flu peptide, reference compound]
IFN-γ production ([3]; protocol A: interval 1 day, 10 stimulations, 11 days, HLA-A24 positive healthy donors): 0 pg/mL
IFN-γ production ([3]; protocol B: interval 2 days, 6 stimulations, 11 days, HLA-A24 positive healthy donors): 227 pg/mL
IFN-γ production ([3]; protocol C: interval 3 days, 5 stimulations, 13 days, HLA-A24 positive healthy donors): 242 pg/mL
IFN-γ production ([3]; protocol D: interval 4 days, 4 stimulations, 13 days, HLA-A24 positive healthy donors): 29 pg/mL
IFN-γ production ([3]; protocol E: interval 5 days, 3 stimulations, 11 days, HLA-A24 positive healthy donors): 16 pg/mL
IFN-γ production ([3]; protocol F: interval 6 days, 3 stimulations, 13 days, HLA-A24 positive healthy donors): 0 pg/mL
IFN-γ production ([3]; protocol G: interval 7 days, 3 stimulations, 21 days, 24-well plate, radiated auto-PBMCs): 150 pg/mL

PFHRVIPDF
Allergic skin reaction, area of flare (healthy donors [2]; healthy donor HD1): 525 mm × mm
Allergic skin reaction, area of flare (healthy donors [2]; healthy donor HD2): 2000 mm × mm
Allergic skin reaction, area of flare (healthy donors [2]; healthy donor HD3): 1400 mm × mm
Allergic skin reaction, area of flare (healthy donors [2]; healthy donor HD6): 700 mm × mm
Allergic skin reaction, area of flare (healthy donors [2]; healthy donor HD10): 270 mm × mm

AFLRGAAL
number of donors with a significant decrease in skin reaction (healthy donors [1]): one

VYDYNCHVDL [SART3109]
rate of skin reaction occurrence (healthy donors [1]): 17%
rate of skin reaction occurrence (donors) (healthy donors [1]): 7/41

AFLRHAGL [ART4 13-7G]
suppressed cases FR ≦ 0.25 (healthy donors [1]): 0/4

KFHRVIGDF
number of donors in whom the skin reaction was significantly decreased (<=0.25 of the rate in redness range) (healthy donors [1]): 1
